What all share (assay type): functional, organism-based
For experiment [1], the system named is Plasmodium berghei. The experiment in a line: Antimalarial activity against Plasmodium berghei infected in mouse assessed as complete cure at 40 mg/kg. Also on record: dose 40 mg/kg.
For experiment [2], the system named is Plasmodium berghei. The experiment in a line: Antimalarial activity against Plasmodium berghei infected in mouse at 10 mg/kg. Also on record: dose 10 mg/kg.
For experiment [3], the system named is Plasmodium berghei. Put plainly: Antimalarial activity against Plasmodium berghei infected in mouse assessed as complete cure at 160 mg/kg. Further details: dose 160 mg/kg.
The subject of experiment [4] is Plasmodium berghei. Put plainly: Antimalarial activity against Plasmodium berghei infected in mouse at 20 mg/kg. Further details: dose 20 mg/kg.

Molecules are shown by their SMILES. Calls of active or inactive are those of the source. No cut-off for these calls is given here.

As to `Cc1cc(C)c2nc3c(c([C@H]4OC(c5ccc(Cl)cc5)N5CCCC[C@H]45)c2c1)CCC3` (mixture of isomers), the outcome with Plasmodium berghei [1] was inactive.

For `CCCCN(CCCC)CC(O)c1c2c(nc3c(C)cc(C)cc13)/C(=C/c1ccc(Cl)cc1)CC2` (stereo not given), the outcome in the experiment with Plasmodium berghei [2] and in the experiment with Plasmodium berghei [1] was Active.

Regarding `CCCCN(CCCC)CC(O)c1cc(/C=C/c2ccc(Cl)cc2)nc2c(C)cc(C)cc12` (stereo not given), the outcome in the experiment with Plasmodium berghei [3] and in the experiment with Plasmodium berghei [4] was Active.

(Values after ChEMBL document CHEMBL3272256, “Antimalarials. 11. 2-Vinylogs of substituted 2-aryl-4-quinoline amino alcohols” (J Med Chem, 1976).)
